Measured values: article PMC10046946, “Novel Phthalic-Based Anticancer Tyrosine Kinase Inhibitors: Design, Synthesis and Biological Activity” (Current Issues in Molecular Biology, 2023)
“Also recorded” adds a separate entry of the source.

Tests used:
[1] = tested on: K562 (chronic myelogenous leukemia); experiment: MTT cell proliferation assay, K562; type: cell-based; conditions: Homo sapiens, K562, 72 h of exposition, read-out: Anti-proliferative activity IC50, K562
In short: (§1)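 Normal human RPMI 1788 B cells accompany the cancer panel to flag general cytotoxicity. Viability is quantified with MTT and summarised as IC50.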

[2] = tested on: HL-60 (promyelocytic leukemia); experiment: MTT cell proliferation assay, HL-60; type: cell-based; conditions: Homo sapiens, HL-60, 72 h of exposition, read-out: Anti-proliferative activity IC50, HL-60
In short: as §1

[3] = tested on: MCF-7 (breast adenocarcinoma); experiment: MTT cell proliferation assay, MCF-7; type: cell-based; conditions: Homo sapiens, MCF7, MCF-7, 72 h of exposition, read-out: Anti-proliferative activity IC50, MCF-7
In short: as §1

[4] = tested on: HepG2 (human liver cancer); experiment: MTT cell proliferation assay, HepG2; type: cell-based; conditions: Homo sapiens, HepG2, 72 h, HepG2, 72 h of exposition, read-out: Anti-proliferative activity IC50, HepG2
In short: as §1

A549 (lung carcinoma) = experiment: MTT cell proliferation assay, A549; type: cell-based; conditions: Homo sapiens, A549, 72 h of exposition, read-out: Anti-proliferative activity IC50, A549
In short: as §1

[5] = tested on: OKP-GS (renal cell carcinoma); experiment: MTT cell proliferation assay, OKP-GS; type: cell-based; conditions: 72 h of exposition, read-out: Anti-proliferative activity IC50, OKP-GS
In short: as §1

[6] = tested on: RPMI 1788 cells (B lymphocyte, human); experiment: MTT cell proliferation assay, normal RPMI 1788 cells; type: cell-based; conditions: normal human lymphoblastoid cells RPMI 1788, 72 h of exposition, read-out: Anti-proliferative activity IC50, RPMI 1788
In short: as §1

[7] = tested on: cancer cell lines (K562, HL-60, MCF-7, HepG2, A549, OKP-GS); experiment: MTT cell proliferation assay, statements over the whole cell line panel; type: cell-based; conditions: statement over the cell line panel, studied concentration range up to 50 µM; for IC50: read-out: Antiproliferative activity (IC50) over the studied cell cultures
Description: Tests to determine the effects of the synthesized compounds on cell viability and the half-maximal inhibitory concentration (IC50) were performed using the MTT assay, as described in our prior work.
The target compounds 5, 6, 8–12, 14, 15, 17–22 and 24–26 were tested for antiproliferative activity against six cancer cell lines: K562 (chronic myelogenous leukemia), HL-60 (promyelocytic leukemia), MCF-7 (breast adenocarcinoma), HepG2 (human liver cancer), A549 (lung carcinoma) and OKP-GS (renal cell carcinoma). The RPMI 1788 cells (B lymphocyte, human) were used as a control to evaluate the system toxicity of the studied compounds to normal cells. Sorafenib, nilotinib and lapatinib were utilized as reference standards for comparison.

HER2 = biological target: T1, HER2 (Homo sapiens, UniProt P04626); experiment: ADP-Glo kinase assay, HER2; type: biochemical
T1 construct: purchased Promega
Description: (§2) The ADP-Glo kinase assay (Promega, Madison, WI, USA) was used to screen compounds 5, 8–10, 14, 17, 19 and 24 for the tyrosine kinase (Kinase Selectivity Profiling System TK-1, Promega, Madison, WI, USA) and serine/threonine kinase (Kinase Selectivity Profiling System Other/CK-1, Promega, Madison, WI, USA) inhibition effects according to the manufacturer’s technical manual. The luminescence data were analyzed as described in our prior work.
(§3) The selectivity of the potential kinase inhibitor against a specific protein kinase or a specific family of kinases was investigated using the Kinase Selectivity Profiling System TK-1, Other/CK-1 and ADP-Glo™ Kinase assay kit (Promega, Madison, WI, USA).

HER4 = biological target: T2, HER4 (Homo sapiens, UniProt Q15303); experiment: ADP-Glo kinase assay, HER4; type: biochemical
T2 construct: purchased Promega
Description: as §2, §3

[8] = biological target: T3, IGF1R (insulin-like growth factor 1 receptor) (Homo sapiens, UniProt P08069); experiment: ADP-Glo kinase assay, IGF1R; type: biochemical
T3 construct: purchased Promega
Description: as §2, §3

InsR (insulin receptor) = biological target: T4, InsR (insulin receptor) (Homo sapiens, UniProt P06213); experiment: ADP-Glo kinase assay, InsR; type: biochemical
T4 construct: purchased Promega
Description: as §2, §3

PDGFRα = biological target: T5, PDGFRα (Homo sapiens, UniProt P16234); experiment: ADP-Glo kinase assay, PDGFRα; type: biochemical
T5 construct: purchased Promega
Description: as §2, §3

PDGFRβ = biological target: T6, PDGFRβ (Homo sapiens, UniProt P09619); experiment: ADP-Glo kinase assay, PDGFRβ; type: biochemical
T6 construct: purchased Promega
Description: as §2, §3

K562 cells = experiment: Cell cycle analysis (propidium iodide, flow cytometry); type: cell-based; conditions: 48 h
In short: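 K562 cells (400,000/well) were exposed in duplicate for 48 h to 1, 5 and 10 μM compound. Cell-cycle phase distribution was then determined by propidium iodide staining and flow cytometry.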

K562 cell line = experiment: ROS determination (DCFH-DA, flow cytometry); type: cell-based; conditions: 48 h
Description: The redox status was assessed using the K562 cell line. […] Then, the cells were washed to remove the 2′,7′-dichlorodihydrofluorescein diacetate by centrifugation at 1000 rpm for 5 min. The measurements were conducted using a Cytomics FC500 Beckman Coulter flow cytometer (FL1 channel for DCF).

EGFR = biological target: T7, EGFR (Homo sapiens, UniProt P00533); experiment: ADP-Glo kinase assay, EGFR; type: biochemical
T7 construct: purchased Promega

KDR (VEGFR-2) = biological target: T8, KDR (VEGFR-2) (Homo sapiens, UniProt P35968); experiment: ADP-Glo kinase assay, KDR; type: biochemical
T8 construct: purchased Promega

Aurora A = biological target: T9, Aurora A (Homo sapiens, UniProt O14965); experiment: ADP-Glo kinase assay, Aurora A; type: biochemical
T9 construct: purchased Promega
T9 sequence (O14965 1-403): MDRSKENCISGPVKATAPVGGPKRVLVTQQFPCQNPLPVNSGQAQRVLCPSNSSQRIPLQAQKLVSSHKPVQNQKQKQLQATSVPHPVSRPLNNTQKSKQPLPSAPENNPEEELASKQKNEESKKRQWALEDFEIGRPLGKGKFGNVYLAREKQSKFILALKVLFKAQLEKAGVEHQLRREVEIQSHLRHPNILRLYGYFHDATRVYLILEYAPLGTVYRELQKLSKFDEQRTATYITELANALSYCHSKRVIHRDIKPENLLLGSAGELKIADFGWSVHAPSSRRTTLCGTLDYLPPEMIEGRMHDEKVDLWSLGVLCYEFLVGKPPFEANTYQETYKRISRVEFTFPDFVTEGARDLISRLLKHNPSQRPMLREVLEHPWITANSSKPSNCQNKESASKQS
Description: as §2, §3

Aurora B = biological target: T10, Aurora B (Homo sapiens, UniProt Q96GD4); experiment: ADP-Glo kinase assay, Aurora B; type: biochemical
T10 construct: purchased Promega
Description: as §2, §3

T6 sequence (P09619 33-1106): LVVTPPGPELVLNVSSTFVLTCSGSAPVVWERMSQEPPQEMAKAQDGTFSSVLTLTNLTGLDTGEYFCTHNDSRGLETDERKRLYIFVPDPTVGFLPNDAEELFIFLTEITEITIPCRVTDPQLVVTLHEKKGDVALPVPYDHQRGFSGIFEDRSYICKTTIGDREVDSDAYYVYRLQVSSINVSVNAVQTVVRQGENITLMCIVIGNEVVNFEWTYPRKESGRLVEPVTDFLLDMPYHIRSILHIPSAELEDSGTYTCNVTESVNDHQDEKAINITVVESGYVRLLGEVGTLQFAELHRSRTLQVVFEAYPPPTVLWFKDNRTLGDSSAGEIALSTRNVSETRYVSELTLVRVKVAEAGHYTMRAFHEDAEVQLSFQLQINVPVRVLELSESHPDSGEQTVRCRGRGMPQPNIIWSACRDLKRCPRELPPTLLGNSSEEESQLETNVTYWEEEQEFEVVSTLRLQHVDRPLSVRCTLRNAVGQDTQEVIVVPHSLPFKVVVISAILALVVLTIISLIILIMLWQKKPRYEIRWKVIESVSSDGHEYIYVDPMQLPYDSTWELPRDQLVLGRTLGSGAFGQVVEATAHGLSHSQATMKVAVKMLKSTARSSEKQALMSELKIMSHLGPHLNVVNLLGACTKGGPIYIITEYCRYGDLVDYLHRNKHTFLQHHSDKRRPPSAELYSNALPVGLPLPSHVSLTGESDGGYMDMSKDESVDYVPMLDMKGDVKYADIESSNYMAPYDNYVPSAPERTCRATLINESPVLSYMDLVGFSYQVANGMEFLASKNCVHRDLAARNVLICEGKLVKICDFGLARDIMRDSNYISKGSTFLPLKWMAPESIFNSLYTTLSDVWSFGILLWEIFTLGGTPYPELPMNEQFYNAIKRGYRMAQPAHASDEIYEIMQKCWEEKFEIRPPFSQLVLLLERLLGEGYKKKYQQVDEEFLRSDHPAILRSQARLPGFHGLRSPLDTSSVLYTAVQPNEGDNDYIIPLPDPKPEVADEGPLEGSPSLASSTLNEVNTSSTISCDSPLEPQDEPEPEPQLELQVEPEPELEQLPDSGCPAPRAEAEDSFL
T1 sequence (P04626 23-1255): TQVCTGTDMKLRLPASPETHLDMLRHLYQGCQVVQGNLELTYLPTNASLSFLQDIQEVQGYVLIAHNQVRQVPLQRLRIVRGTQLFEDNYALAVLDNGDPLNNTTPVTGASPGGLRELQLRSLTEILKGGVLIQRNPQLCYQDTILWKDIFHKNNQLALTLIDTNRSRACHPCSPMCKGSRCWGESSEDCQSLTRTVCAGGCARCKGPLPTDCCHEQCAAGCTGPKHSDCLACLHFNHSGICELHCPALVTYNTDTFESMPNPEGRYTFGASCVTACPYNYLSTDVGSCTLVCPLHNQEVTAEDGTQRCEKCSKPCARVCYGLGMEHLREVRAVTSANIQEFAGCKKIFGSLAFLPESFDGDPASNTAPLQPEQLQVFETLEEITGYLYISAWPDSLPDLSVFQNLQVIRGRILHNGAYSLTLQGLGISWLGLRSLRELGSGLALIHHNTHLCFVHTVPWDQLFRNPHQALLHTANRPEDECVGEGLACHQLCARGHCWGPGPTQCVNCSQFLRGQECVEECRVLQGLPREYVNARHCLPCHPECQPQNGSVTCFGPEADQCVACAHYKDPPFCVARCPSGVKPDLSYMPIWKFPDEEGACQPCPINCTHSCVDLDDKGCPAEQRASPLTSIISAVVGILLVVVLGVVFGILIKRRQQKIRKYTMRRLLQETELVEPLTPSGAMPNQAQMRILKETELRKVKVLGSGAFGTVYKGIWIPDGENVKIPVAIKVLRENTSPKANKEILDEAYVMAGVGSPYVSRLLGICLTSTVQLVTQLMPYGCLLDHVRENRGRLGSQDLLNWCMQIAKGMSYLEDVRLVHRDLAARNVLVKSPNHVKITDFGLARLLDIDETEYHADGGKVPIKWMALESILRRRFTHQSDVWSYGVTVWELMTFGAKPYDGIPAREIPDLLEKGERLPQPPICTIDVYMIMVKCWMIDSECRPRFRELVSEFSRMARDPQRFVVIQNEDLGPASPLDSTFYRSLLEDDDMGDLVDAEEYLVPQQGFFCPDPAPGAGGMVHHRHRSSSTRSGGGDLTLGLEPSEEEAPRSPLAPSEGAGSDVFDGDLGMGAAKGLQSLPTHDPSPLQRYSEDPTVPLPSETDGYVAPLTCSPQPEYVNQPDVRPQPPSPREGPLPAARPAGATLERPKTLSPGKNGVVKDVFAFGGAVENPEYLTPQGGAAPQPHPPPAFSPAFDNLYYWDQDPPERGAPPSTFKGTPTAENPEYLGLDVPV
T3 sequence (P08069 31-1367): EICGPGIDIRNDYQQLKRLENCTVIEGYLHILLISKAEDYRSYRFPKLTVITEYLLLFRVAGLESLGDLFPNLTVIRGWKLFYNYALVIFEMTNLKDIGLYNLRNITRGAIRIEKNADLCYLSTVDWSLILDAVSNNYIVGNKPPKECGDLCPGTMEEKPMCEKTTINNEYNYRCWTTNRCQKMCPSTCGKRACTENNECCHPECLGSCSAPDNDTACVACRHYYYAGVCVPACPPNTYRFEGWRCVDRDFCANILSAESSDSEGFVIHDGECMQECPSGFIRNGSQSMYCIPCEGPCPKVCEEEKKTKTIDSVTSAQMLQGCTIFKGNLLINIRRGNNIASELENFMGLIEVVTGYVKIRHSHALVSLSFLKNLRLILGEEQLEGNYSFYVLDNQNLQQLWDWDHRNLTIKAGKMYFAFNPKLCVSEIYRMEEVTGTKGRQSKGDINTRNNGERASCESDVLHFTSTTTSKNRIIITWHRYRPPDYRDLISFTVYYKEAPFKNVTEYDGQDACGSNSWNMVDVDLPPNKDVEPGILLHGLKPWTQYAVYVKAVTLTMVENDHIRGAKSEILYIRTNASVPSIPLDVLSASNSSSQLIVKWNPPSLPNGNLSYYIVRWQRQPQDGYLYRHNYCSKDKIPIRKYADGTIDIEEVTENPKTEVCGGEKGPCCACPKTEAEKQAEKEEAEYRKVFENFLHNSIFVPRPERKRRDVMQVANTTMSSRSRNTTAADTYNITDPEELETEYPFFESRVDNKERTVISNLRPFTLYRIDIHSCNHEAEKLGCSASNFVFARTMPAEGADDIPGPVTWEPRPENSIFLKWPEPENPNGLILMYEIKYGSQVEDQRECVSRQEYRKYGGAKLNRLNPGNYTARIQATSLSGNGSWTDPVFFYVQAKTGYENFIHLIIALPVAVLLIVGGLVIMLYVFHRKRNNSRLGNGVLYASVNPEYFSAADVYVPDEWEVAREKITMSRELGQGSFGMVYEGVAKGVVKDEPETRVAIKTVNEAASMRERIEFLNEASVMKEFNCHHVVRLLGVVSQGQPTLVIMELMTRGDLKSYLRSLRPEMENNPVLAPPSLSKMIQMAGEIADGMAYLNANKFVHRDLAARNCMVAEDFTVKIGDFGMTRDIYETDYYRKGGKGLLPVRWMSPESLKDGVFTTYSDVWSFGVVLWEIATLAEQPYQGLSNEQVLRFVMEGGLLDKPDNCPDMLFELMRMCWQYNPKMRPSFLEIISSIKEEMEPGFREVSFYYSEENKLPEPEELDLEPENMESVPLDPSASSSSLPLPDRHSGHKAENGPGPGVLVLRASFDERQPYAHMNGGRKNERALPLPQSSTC
T2 sequence (Q15303 26-1308): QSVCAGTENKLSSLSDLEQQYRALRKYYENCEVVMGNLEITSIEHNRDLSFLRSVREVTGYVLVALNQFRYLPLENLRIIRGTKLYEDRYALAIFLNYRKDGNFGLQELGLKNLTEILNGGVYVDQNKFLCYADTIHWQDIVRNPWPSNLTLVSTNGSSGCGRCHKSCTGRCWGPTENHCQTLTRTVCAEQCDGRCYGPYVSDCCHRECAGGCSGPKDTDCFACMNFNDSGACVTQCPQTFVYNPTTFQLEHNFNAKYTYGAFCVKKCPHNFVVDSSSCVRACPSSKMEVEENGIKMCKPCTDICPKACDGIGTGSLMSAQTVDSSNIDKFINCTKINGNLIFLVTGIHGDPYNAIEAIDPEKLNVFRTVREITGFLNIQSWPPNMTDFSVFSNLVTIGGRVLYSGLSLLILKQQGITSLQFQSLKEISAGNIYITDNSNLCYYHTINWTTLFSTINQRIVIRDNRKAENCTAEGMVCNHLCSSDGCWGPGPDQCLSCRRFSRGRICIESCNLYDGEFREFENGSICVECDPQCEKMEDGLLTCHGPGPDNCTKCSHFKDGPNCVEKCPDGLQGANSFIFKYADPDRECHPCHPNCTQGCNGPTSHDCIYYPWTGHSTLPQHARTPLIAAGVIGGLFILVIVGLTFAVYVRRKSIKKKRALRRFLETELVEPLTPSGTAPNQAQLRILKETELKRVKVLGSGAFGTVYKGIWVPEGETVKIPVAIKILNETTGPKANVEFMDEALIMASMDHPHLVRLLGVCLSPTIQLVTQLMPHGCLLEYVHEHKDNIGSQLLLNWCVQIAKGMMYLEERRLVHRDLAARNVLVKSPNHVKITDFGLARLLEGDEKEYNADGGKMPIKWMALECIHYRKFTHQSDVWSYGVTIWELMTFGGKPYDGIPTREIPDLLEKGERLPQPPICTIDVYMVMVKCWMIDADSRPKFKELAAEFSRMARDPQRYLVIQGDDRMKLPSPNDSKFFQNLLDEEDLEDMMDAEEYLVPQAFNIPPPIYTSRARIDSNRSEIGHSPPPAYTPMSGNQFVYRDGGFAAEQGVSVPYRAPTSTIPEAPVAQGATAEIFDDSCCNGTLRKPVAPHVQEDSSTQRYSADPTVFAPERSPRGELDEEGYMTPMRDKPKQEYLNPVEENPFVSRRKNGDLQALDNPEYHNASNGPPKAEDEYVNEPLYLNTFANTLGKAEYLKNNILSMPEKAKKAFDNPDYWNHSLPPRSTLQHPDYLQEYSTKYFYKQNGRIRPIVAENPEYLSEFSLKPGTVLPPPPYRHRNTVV

## Cc1cn(-c2cc(NC(=O)c3cccc(C(=O)Nc4cc([N+](=O)[O-])ccc4C)c3)cc(C(F)(F)F)c2)cn1 [Compound 12, N1-(3-(4-methyl-1H-imidazol-1-yl)-5-(trifluoromethyl)phenyl)-N3-(2-methyl-5-nitrophenyl)isophthalamide]
[1]
  IC50: > 50 µM
[2]
  IC50: > 50 µM
[3]
  IC50: > 50 µM
[4]
  IC50: > 50 µM
A549 (lung carcinoma)
  IC50: > 50 µM
[5]
  IC50: 27.5 ± 2.58 µM
[6]
  IC50: 2.36 ± 1.13 µM
[7]
  Antiproliferative activity (IC50) over the studied cell cultures: lack of sensitivity of the cancer cells in the studied concentration range
other
  melting point: 290 to 292 °C

## CS(=O)(=O)CCNCc1ccc(-c2ccc3ncnc(Nc4ccc(OCc5cccc(F)c5)c(Cl)c4)c3c2)o1 [Lapatinib, reference compound]
[1]
  IC50: 9.62 ± 1.56 µM
[2]
  IC50: 10.6 ± 1.02 µM
[3]
  IC50: 10.9 ± 0.34 µM
[4]
  IC50: 27.1 ± 0.08 µM
A549 (lung carcinoma)
  IC50: 18.6 ± 2.65 µM
[5]
  IC50: 7.32 ± 2.15 µM
[6]
  IC50: 9.31 ± 0.9 µM
HER2
  inhibition at 10 µM: 76%
HER4
  inhibition at 10 µM: 100%
[8]
  inhibition at 10 µM: 0%
InsR (insulin receptor)
  inhibition at 10 µM: 0%
PDGFRα
  inhibition at 10 µM: 2%
PDGFRβ
  inhibition at 10 µM: 10%
K562 cells; K562, 1 µM
  Apoptosis, % (cell cycle analysis): 14.74%
  G1, %: 34.47%
  G2/M, %: 52.23%
  S, %: 13.31%
K562 cells; K562, 5 µM
  Apoptosis, % (cell cycle analysis): 28.92%
  G1, %: 31.31%
  G2/M, %: 55.68%
  S, %: 13.02%
K562 cell line; K562, 5 µM
  ROS Level, % of Control: 64.12 % of Control
K562 cell line; K562, 10 µM
  ROS Level, % of Control: 72.23 % of Control
K562 cell line; K562, 20 µM
  ROS Level, % of Control: 89.07 % of Control
[7]
  IC50: 2 to 27 µM

## Cc1cn(-c2cc(NC(=O)c3ccc(C(=O)Nc4cccc(C(F)(F)F)c4)cc3)cc(C(F)(F)F)c2)cn1 [Compound 17, N1-(3-(4-methyl-1H-imidazol-1-yl)-5-(trifluoromethyl)phenyl)-N4-(3-(trifluoromethyl)phenyl)-terephthalamide]
[1]
  IC50: 15.6 µM
[2]
  IC50: > 50 µM
[3]
  IC50: > 50 µM
[4]
  IC50: > 50 µM
A549 (lung carcinoma)
  IC50: > 50 µM
[5]
  IC50: > 50 µM
[6]
  IC50: > 50 µM
EGFR
  inhibition at 10 µM: 0%
HER2
  inhibition at 10 µM: 13%
HER4
  inhibition at 10 µM: 0%
[8]
  inhibition at 10 µM: 0%
InsR (insulin receptor)
  inhibition at 10 µM: 0%
KDR (VEGFR-2)
  inhibition at 10 µM: 0%
PDGFRα
  inhibition at 10 µM: ≤ 20%
PDGFRβ
  inhibition at 10 µM: 15%
Aurora A
  inhibition at 10 µM: 0%
Aurora B
  inhibition at 10 µM: 0%
[7]
  Antiproliferative activity (IC50) over the studied cell cultures: practically did not affect the cell lines’ viability; also recorded: almost no effect on the cell lines’ viability
other
  melting point: 208 to 210 °C

## CNC(=O)c1cc(Oc2ccc(NC(=O)c3cccc(C(=O)Nc4cccc(C(F)(F)F)c4)c3)cc2)ccn1 [Compound 6, N1-(4-((2-(methylcarbamoyl)pyridin-4-yl)oxy)phenyl)-N3-(3-(trifluoromethyl)phenyl)isophthalamide]
[1]
  IC50: > 50 µM
[2]
  IC50: > 50 µM
[3]
  IC50: 41.1 ± 5.06 µM
[4]
  IC50: > 50 µM
A549 (lung carcinoma)
  IC50: > 50 µM
[5]
  IC50: > 50 µM
[6]
  IC50: 13 ± 2.99 µM
[7]
  Antiproliferative activity (IC50) over the studied cell cultures: lack of sensitivity of the cancer cells in the studied concentration range
other
  melting point: 258 to 260 °C

## CNC(=O)c1cc(Oc2ccc(NC(=O)c3cccc(C(=O)Nc4cc(-n5cnc(C)c5)cc(C(F)(F)F)c4)c3)cc2)ccn1 [Compound 11, N1-(3-(4-methyl-1H-imidazol-1-yl)-5-(trifluoromethyl)phenyl)-N3-(4-((2-(methylcarbamoyl)pyridin-4-yl)oxy)phenyl)isophthalamide]
[1]
  IC50: > 50 µM
[2]
  IC50: > 50 µM
[3]
  IC50: > 50 µM
[4]
  IC50: > 50 µM
A549 (lung carcinoma)
  IC50: > 50 µM
[5]
  IC50: 26.5 ± 3.65 µM
[6]
  IC50: 21.9 ± 0.44 µM
[7]
  Antiproliferative activity (IC50) over the studied cell cultures: lack of sensitivity of the cancer cells in the studied concentration range
other
  melting point: 313 to 315 °C

## Cc1cn(-c2cc(NC(=O)c3ccc(C)c(Nc4nccc(-c5cccnc5)n4)c3)cc(C(F)(F)F)c2)cn1 [Nilotinib, reference compound]
[1]
  IC50: < 0.1 µM
[2]
  IC50: 22.7 ± 4.76 µM
[3]
  IC50: 4.2 ± 0.14 µM
[4]
  IC50: 4.81 ± 0.21 µM
A549 (lung carcinoma)
  IC50: > 50 µM
[5]
  IC50: 2.76 ± 0.06 µM
[6]
  IC50: 19.32 ± 0.09 µM
[7]
  IC50: 2 to 27 µM
